According to patent publication US20100087516A1, “ANTIBACTERIAL MACROLACTIN A THAT BACILLUS POLYFERMENTICUS KJS-2 PRODUCED IN” (priority 2007, published 2010):
≈ marks a conversion by molar mass, not a printed value. Where two headings read alike, the source gives them in different places.

Columns and labels:
[1] = tested on: 11 VRE strains, clinically isolated; assay: Minimal inhibitory concentration (MIC>90) in MH II medium; assay type: cell-based, vancomycin-resistant enterococci; conditions: for MIC: Enterococcus, VRE
Description: (§1) The MIC (minimal inhibitory concentration) against VRE and MRSA was measured to test antibiotic activity of Macrolactin A produced by Bacillus polyfermenticus KJS-2, which is the strain of the present invention, against the two strains. The strains used for the experiment were 11 VRE strains and 13 MRSA strains, which were clinically isolated. Each strain used for the experiment was cultured in MH II medium at 200 rpm for 6 hours at 37° C., the absorbance of the medium measured at OD600nm using a UV detector, and then 1 ml aliquot of the medium was spread over MH II agar medium and incubated for 16 hours at 37° C. The number of colonies formed on the agar medium after 16 hours of incubation was counted. Each strain used for experiment was cultured in MH II medium at 200 rpm for 6 hours at 37° C., and the absorbance of the medium was measured at OD600nm using a UV detector. The number of cells were calculated based on the ratio of the number of colonies to the absorbance of the medium, and measured by the above process. Each culture medium was diluted to the final cell concentration of 0.25*10^7 cfu/ml and Macrolactin A was dissolved in the solvent DMSO, while ampicillin, teycoplanin, vancomycin and methillin were dissolved in water. To measure the MIC of Macrolactin A or of the four antibiotics, the mixture of the materials listed in Table 5 and Macrolactin A or the mixture of the materials listed in Table 6 and each of the four antibiotics, respectively in a 500 μl eppendorff tub, was incubated at 200 rpm for 16 hours at 37° C., and then absorbance was measured by a UV/Visible Light detector at 600 nm using a Fluorescence Multi-Detection Reader.

[2] = tested on: 13 MRSA strains, clinically isolated; assay: as above; assay type: cell-based, methicillin-resistant Staphylococcus aureus; conditions: for MIC: Staphylococcus aureus, MRSA
Description: as §1

[3] = tested on: vancomycin-resistant enterococci (VRE); conditions: cited from earlier work
Burkholderia cepacia = conditions: cited from earlier work
[4] = tested on: methicillin-resistant Staphylococcus aureu (MRSA); conditions: cited from earlier work
VRE5 = assay: Bioassay at a gradient of concentration on TSB agar medium; assay type: cell-based, vancomycin-resistant enterococci; conditions: solution 5 mg/ml in H2O

Compound: CC1(C)S[C@@H]2[C@H](NC(=O)[C@H](N)c3ccccc3)C(=O)N2[C@H]1C(=O)O [Ampicillin]
- MIC ([1]; Average of the 11 VRE strains, read-out: average MIC>90): 273 µg/mL (≈ 781 µM)
- MIC ([1]; VRE1, read-out: MIC>90): 250 µg/mL (≈ 715 µM)
- MIC ([1]; VRE2, read-out: MIC>90): 250 µg/mL (≈ 715 µM)
- MIC ([1]; VRE3, read-out: MIC>90): 250 µg/mL (≈ 715 µM)
- MIC ([1]; VRE4, read-out: MIC>90): 250 µg/mL (≈ 715 µM)
- MIC ([1]; VRE5, read-out: MIC>90): 250 µg/mL (≈ 715 µM)
- MIC ([1]; VRE6, read-out: MIC>90): 250 µg/mL (≈ 715 µM)
- MIC ([1]; VRE7, read-out: MIC>90): 250 µg/mL (≈ 715 µM)
- MIC ([1]; VRE9, read-out: MIC>90): 250 µg/mL (≈ 715 µM)
- MIC ([1]; VRE10, read-out: MIC>90): 250 µg/mL (≈ 715 µM)
- MIC ([1]; VRE914, read-out: MIC>90): 250 µg/mL (≈ 715 µM)
- MIC ([1]; VRE915, read-out: MIC>90): 500 µg/mL (≈ 1430 µM)
- MIC ([2]; Average of the 13 MRSA strains, read-out: average MIC>90): 212 µg/mL (≈ 605 µM)
- MIC ([2]; MRSA1, read-out: MIC>90): 250 µg/mL (≈ 715 µM)
- MIC ([2]; MRSA2, read-out: MIC>90): 250 µg/mL (≈ 715 µM)
- MIC ([2]; MRSA3, read-out: MIC>90): 250 µg/mL (≈ 715 µM)
- MIC ([2]; MRSA4, read-out: MIC>90): 250 µg/mL (≈ 715 µM)
- MIC ([2]; MRSA5, read-out: MIC>90): 250 µg/mL (≈ 715 µM)
- MIC ([2]; MRSA6, read-out: MIC>90): 250 µg/mL (≈ 715 µM)
- MIC ([2]; MRSA7, read-out: MIC>90): 250 µg/mL (≈ 715 µM)
- MIC ([2]; MRSA8*, read-out: MIC>90): 125 µg/mL (≈ 358 µM)
- MIC ([2]; MRSA8, read-out: MIC>90): 125 µg/mL (≈ 358 µM)
- MIC ([2]; MRSA9, read-out: MIC>90): 125 µg/mL (≈ 358 µM)
- MIC ([2]; MRSA10, read-out: MIC>90): 250 µg/mL (≈ 715 µM)
- MIC ([2]; MRSA11*, read-out: MIC>90): 250 µg/mL (≈ 715 µM)
- MIC ([2]; MRSA11, read-out: MIC>90): 125 µg/mL (≈ 358 µM)

Compound: CC1CCC/C=C/C=C/C(O)CC(O)C/C=C\C=C\C(OC(=O)CC(=O)O)C/C=C/C=C\C(=O)O1 (stereo not shown) [Malonyl-macrolactin A (MMA), Malonyl-macrolactin A]
- antibiotic activity against VRE [3]: excellent antibiotic activity
- antibiotic activity against Burkholderia cepacia (Burkholderia cepacia): excellent antibiotic activity
- antibiotic activity against MRSA [4]: excellent antibiotic activity

Compound: CN[C@H](CC(C)C)C(=O)N[C@H]1C(=O)N[C@@H](CC(N)=O)C(=O)N[C@H]2C(=O)N[C@H]3C(=O)N[C@H](C(=O)N[C@H](C(=O)O)c4cc(O)cc(O)c4-c4cc3ccc4O)[C@H](O)c3ccc(c(Cl)c3)Oc3cc2cc(c3O[C@@H]2O[C@H](CO)[C@@H](O)[C@H](O)[C@H]2O[C@H]2C[C@](C)(N)[C@H](O)[C@H](C)O2)Oc2ccc(cc2Cl)[C@H]1O [Vancomycin]
- inhibition of VRE5 on TSB agar medium (VRE5): not inhibited
- MIC ([1]; read-out: MIC>90, VRE1): 500 µg/mL (≈ 345 µM)
- MIC ([1]; read-out: MIC>90, VRE2): 500 µg/mL (≈ 345 µM)
- MIC ([1]; read-out: MIC>90, VRE3): 125 µg/mL (≈ 86.3 µM)
- MIC ([1]; read-out: MIC>90, VRE4): 250 µg/mL (≈ 173 µM)
- MIC ([1]; read-out: MIC>90, VRE5): 250 µg/mL (≈ 173 µM)
- MIC ([1]; read-out: MIC>90, VRE6): 250 µg/mL (≈ 173 µM)
- MIC ([1]; read-out: MIC>90, VRE7): 250 µg/mL (≈ 173 µM)
- MIC ([1]; read-out: MIC>90, VRE9): 250 µg/mL (≈ 173 µM)
- MIC ([1]; read-out: MIC>90, VRE10): 125 µg/mL (≈ 86.3 µM)
- MIC ([1]; read-out: MIC>90, VRE914): 125 µg/mL (≈ 86.3 µM)
- MIC ([1]; read-out: MIC>90, VRE915): 250 µg/mL (≈ 173 µM)
- MIC ([1]; read-out: average MIC>90, Average of the 11 VRE strains): 261 µg/mL (≈ 180 µM)
- MIC ([2]; read-out: MIC>90, MRSA1): 250 µg/mL (≈ 173 µM)
- MIC ([2]; read-out: MIC>90, MRSA2): 125 µg/mL (≈ 86.3 µM)
- MIC ([2]; read-out: MIC>90, MRSA3): 125 µg/mL (≈ 86.3 µM)
- MIC ([2]; read-out: MIC>90, MRSA4): 125 µg/mL (≈ 86.3 µM)
- MIC ([2]; read-out: MIC>90, MRSA5): 125 µg/mL (≈ 86.3 µM)
- MIC ([2]; read-out: MIC>90, MRSA6): 250 µg/mL (≈ 173 µM)
- MIC ([2]; read-out: MIC>90, MRSA7): 250 µg/mL (≈ 173 µM)
- MIC ([2]; read-out: MIC>90, MRSA8): 125 µg/mL (≈ 86.3 µM)
- MIC ([2]; read-out: MIC>90, MRSA8*): 125 µg/mL (≈ 86.3 µM)
- MIC ([2]; read-out: MIC>90, MRSA9): 250 µg/mL (≈ 173 µM)
- MIC ([2]; read-out: MIC>90, MRSA10): 250 µg/mL (≈ 173 µM)
- MIC ([2]; read-out: MIC>90, MRSA11): 250 µg/mL (≈ 173 µM)
- MIC ([2]; read-out: MIC>90, MRSA11*): 31.2 µg/mL (≈ 21.6 µM)
- MIC ([2]; read-out: average MIC>90, Average of the 13 MRSA strains): 175 µg/mL (≈ 121 µM)

Compound: Teicoplanin
- average MIC>90 ([1]; Average of the 11 VRE strains): 125 µg/mL
- MIC>90 ([1]; VRE1): 250 µg/mL
- MIC>90 ([1]; VRE2): 250 µg/mL
- MIC>90 ([1]; VRE3): 62.5 µg/mL
- MIC>90 ([1]; VRE4): 125 µg/mL
- MIC>90 ([1]; VRE5): 125 µg/mL
- MIC>90 ([1]; VRE6): 125 µg/mL
- MIC>90 ([1]; VRE7): 125 µg/mL
- MIC>90 ([1]; VRE9): 62.5 µg/mL
- MIC>90 ([1]; VRE10): 62.5 µg/mL
- MIC>90 ([1]; VRE914): 62.5 µg/mL
- MIC>90 ([1]; VRE915): 125 µg/mL
- average MIC>90 ([2]; Average of the 13 MRSA strains): 104.6 µg/mL
- MIC>90 ([2]; MRSA1): 250 µg/mL
- MIC>90 ([2]; MRSA2): 125 µg/mL
- MIC>90 ([2]; MRSA3): 125 µg/mL
- MIC>90 ([2]; MRSA4): 125 µg/mL
- MIC>90 ([2]; MRSA5): 125 µg/mL
- MIC>90 ([2]; MRSA6): 125 µg/mL
- MIC>90 ([2]; MRSA7): 250 µg/mL
- MIC>90 ([2]; MRSA8): 62.5 µg/mL
- MIC>90 ([2]; MRSA8*): 31.25 µg/mL
- MIC>90 ([2]; MRSA9): 15.63 µg/mL
- MIC>90 ([2]; MRSA10): 31.25 µg/mL
- MIC>90 ([2]; MRSA11): 31.25 µg/mL
- MIC>90 ([2]; MRSA11*): 62.5 µg/mL
